{
  "source": "patent US20250101429A1",
  "about": "“siRNAs and shRNAs Targeting HIV and Combinations, Expression Cassettes, Cells and Use Thereof” (BEIJING SOLOBIO GENETECHNOLOGY CO., LTD., priority 2021, published 2025)",
  "assay_type_in_all_cases": "cell-based",
  "key": {"HIV-1 IIIB": {"tested_on": "HIV-1 IIIB", "experiment": "Antiviral activity of recombinant lentiviruses against HIV-1 IIIB in H9 cells (P24 antigen ELISA)", "conditions": "H9 + HIV-1 IIIB, positive drug, concentration 1 μM; for Relative concentration(%): vs no-drug control = 100; for Average concentration of P24: day 7", "method": "The H9 cells were resuscitated and subcultured in complete medium (RPMI-1640+10% FBS+PS). The cells were resuspended in OPTI-MEM medium, counted and adjusted to a concentration of 5×10^5 cells/ml, and inoculated in 6-well plates with 2 ml per well. The experimental groups SIV-Gag3, SIV-Gag2, SIV-Gag1, SIV-LTR2 or SIV-Nef, SIV-EGFP empty vector control group and blank control group (no HIV-1 IIIB infection, and […]) were set on the 6-well plates. The above recombinant lentiviruses were added to the 6-well plates with the multiplicity of infection (MOI) of 2000, mixed, and cultured at 37° C., 5% CO2 for 24 hours. Each well was supplemented with 4 ml complete medium and cultured at 37° C., 5% CO2 for 72 hours.\n(§1) 5 ml of supernatant from each well of 6-well plates was discarded and another 5 ml of fresh complete medium was added. Cells were diluted and inoculated in 96-well plates at 1×10^4 cells/well. 0.5 ml of HIV-1 IIIB was diluted with 5.75 ml of complete medium and mixed. Then 100 μl of virus diluent was added to each well of cells, except for the blank control group, mixed and incubated at 37° C. and 5% CO2. Half volume of liquid was changed on day 2 and day 4 after HIV-1 IIIB infection, respectively. 150 μl of sample was taken from each well on day 7 after infection, sealed and heated at 56° C. for 30 minutes. After the HIV viruses were thermally inactivated, the sample was stored at −20° C., ready for ELISA detection.\nHIV-1 P24 antigen detection kit (96T) (Beijing Jinboyi Biotechnology Co., Ltd.) was used for ELISA detection. The OD Value was measured with a microplate reader. Then average value, and relative concentration was calculated to determine the antiviral activity of the recombinant lentiviruses against HIV-1 IIIB in H9 cells.\nThe H9 cells were resuscitated and subcultured in complete medium (RPMI-1640+10% FBS+PS). The cells were resuspended in OPTI-MEM medium, counted and adjusted to a concentration of 5×10^5 cells/ml, and inoculated in 6-well plates with 2 ml per well. The experimental groups SIV-G3L2, SIV-G2L2, SIV-G1L2, or SIV-G2N, SIV-EGFP empty vector control group, positive drug control group (Efavirenz, EFV, Shanghai Desano Pharmaceuticals Co., Ltd., Concentration 1 μM), no-drug control group (HIV-1 IIIB infection, and no recombinant lentivirus drug administration) and blank control group (no HIV-1 IIIB infection, and no lentivirus drug administration) were set on the 6-well plates. The recombinant lentiviruses were added to the 6-well plates at five doses with the multiplicity of infection (MOI) of 125, 250, 500, 1000, and 2000, and the added volumes were 2.1 μL, 4.2 μL, 8.4 μL, 16.7 μL, 33.3 μL, respectively, with one well for each dose. The recombinant lentivirus SIV-EGFP with MOI of 2000 was added as an empty vector control, the volume was 33.3 μL. Mixed, and cultured at 37° C. and 5% CO2 for 24 hours. Each well was supplemented with 4 ml complete medium and cultured at 37° C., 5% CO2 for 72 hours.\nas §1, with “the cells” for “Cells”"}, "[1]": {"tested_on": "HIV reverse transcriptase inhibitor resistant strain MT2-010", "experiment": "Antiviral activity against reverse transcriptase inhibitor resistant strain MT2-010 in MT2 cells (P24 ELISA)", "conditions": "MT2 + MT2-010, positive drug, concentration 1 μM; for Average concentration: P24 ELISA; for Relative concentration(%): vs no-drug control = 100", "method": "The experimental design of example 4 was the same as that of Example 3, except that the tested strain was a reverse transcriptase inhibitor resistant strain MT2-010, and the infected cells were MT2 cells. Firstly, cell culture and recombinant lentivirus infection: the experimental group SIV-G3L2 or\n(§2) SIV-G2N, SIV-EGFP empty vector control group, positive drug control group (Efavirenz, EFV, Shanghai Desano Pharmaceuticals Co., Ltd., Concentration 1 μM), no drug control group (MT2-010 infection, and no recombinant lentivirus drug administration), and a blank control group were set on the 6-well plates. The recombinant lentiviruses were added to the 6-well plates with the multiplicity of infection (MOI) of 125, 250, 500, 1000 and 2000, respectively, and the recombinant lentivirus SIV-EGFP with MOI of 2000 was added as an empty vector control. Mixed and cultured.\nThen virus challenge: the MT2 cells were diluted and inoculated in 96-well plates at 1×10^4 cells/well. The reverse transcriptase inhibitor resistant strain MT2-010 was diluted with complete culture medium, and mixed. The virus diluent was added into each well of cells, except for the blank control group. Mixed and cultured. The sampling was performed as described in Example 3, and ELISA detection was performed by using the above-mentioned kit. The OD value was measured with a microplate reader. Then average value, and relative concentration was calculated to determine the antiviral activity of the recombinant lentiviruses against MT2-010 in MT2 cells."}, "[2]": {"tested_on": "HIV protease inhibitor resistant strain MT2-884", "experiment": "Antiviral activity against protease inhibitor resistant strain MT2-884 in MT2 cells (P24 ELISA)", "conditions": "Table 9, MT2 + MT2-884, positive drug, concentration 1 μM", "method": "as §2, with “The experimental method of example 5 was the same as Step 1 of Example 3, except that the tested strain was a protease inhibitor resistant strain MT2-884, and the infected cells were MT2 cells. Firstly, cell culture and recombinant lentivirus SIV-G3L2 or SIV-G2N infection: Cells were cultured in 6-well plates, and the experimental group SIV-G3L2 or SIV-G2N,” for “SIV-G2N,”, “(MT2-884” for “(MT2-010”\nThen virus challenge: the MT2 cells were diluted and inoculated in 96-well plates at 1×10^4 cells/well. […] The OD value was measured with a microplate reader. then average value, and relative concentration was calculated to determine the antiviral activity of the recombinant lentiviruses against MT2-884 in MT2 cells."}},
  "data": [
    {"smiles": "O=C1Nc2ccc(Cl)cc2[C@@](C#CC2CC2)(C(F)(F)F)O1", "note": "[EFV, Efavirenz]", "values": [
      {"measurement": "Average concentration", "setting": "HIV-1 IIIB; Table 3, P24 ELISA day 7", "result": 10},
      {"measurement": "Relative concentration(%)", "setting": "HIV-1 IIIB; Table 3", "result": 0.05, "unit": "%"},
      {"measurement": "Average concentration of P24", "setting": "HIV-1 IIIB; Table 4", "result": "<10", "unit": "pg/mL"},
      {"measurement": "Relative concentration(%)", "setting": "HIV-1 IIIB; Table 4", "result": 0.05, "unit": "%"},
      {"measurement": "Average concentration of P24", "setting": "HIV-1 IIIB; Table 5", "result": "<10", "unit": "pg/mL"},
      {"measurement": "Relative concentration(%)", "setting": "HIV-1 IIIB; Table 5", "result": 0.05, "unit": "%"},
      {"measurement": "Average concentration of P24", "setting": "HIV-1 IIIB; Table 6", "result": "<10", "unit": "pg/mL"},
      {"measurement": "Relative concentration(%)", "setting": "HIV-1 IIIB; Table 6", "result": 0.05, "unit": "%"},
      {"measurement": "Average concentration", "setting": "[1]; Table 7", "result": 52.69},
      {"measurement": "Relative concentration(%)", "setting": "[1]; Table 7", "result": 0.17, "unit": "%"},
      {"measurement": "Average concentration", "setting": "[1]; Table 8", "result": 59.36},
      {"measurement": "Relative concentration(%)", "setting": "[1]; Table 8", "result": 0.21, "unit": "%"},
      {"measurement": "Average concentration(pg/ml)", "setting": "[2]; P24 ELISA", "result": 50, "unit": "pg/mL"},
      {"measurement": "Relative concentration(%)", "setting": "[2]; vs no-drug control = 100", "result": 0.51, "unit": "%"}
    ]}
  ]
}
